Tests used:
Experiment in all cases: Radiometric kinase panel
Format in all cases: biochemical
FLT3 = target: T1, FLT3 (Homo sapiens, UniProt P36888)
T1 construct: either as full-length or enzymatically active fragments; purchased ProQinase GmbH (Reaction Biology)
In short: (§1)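 Activity was measured radiometrically from [gamma-33P]-ATP incorporation into substrate. The kinases were recombinant human GST- or His-tagged proteins, full-length or active fragments, expressed in Sf9 or E. coli. Compound in 10% DMSO was added before the enzyme/substrate mix, which started the reaction.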

SRPK2 = target: T2, SRPK2 (Homo sapiens, UniProt P78362)
T2 construct: purchased ProQinase GmbH (Reaction Biology)
In short: as §1

RON = target: T3, RON (Homo sapiens, UniProt Q04912)
T3 construct: purchased ProQinase GmbH (Reaction Biology)
T3 sequence (Q04912 25-1400): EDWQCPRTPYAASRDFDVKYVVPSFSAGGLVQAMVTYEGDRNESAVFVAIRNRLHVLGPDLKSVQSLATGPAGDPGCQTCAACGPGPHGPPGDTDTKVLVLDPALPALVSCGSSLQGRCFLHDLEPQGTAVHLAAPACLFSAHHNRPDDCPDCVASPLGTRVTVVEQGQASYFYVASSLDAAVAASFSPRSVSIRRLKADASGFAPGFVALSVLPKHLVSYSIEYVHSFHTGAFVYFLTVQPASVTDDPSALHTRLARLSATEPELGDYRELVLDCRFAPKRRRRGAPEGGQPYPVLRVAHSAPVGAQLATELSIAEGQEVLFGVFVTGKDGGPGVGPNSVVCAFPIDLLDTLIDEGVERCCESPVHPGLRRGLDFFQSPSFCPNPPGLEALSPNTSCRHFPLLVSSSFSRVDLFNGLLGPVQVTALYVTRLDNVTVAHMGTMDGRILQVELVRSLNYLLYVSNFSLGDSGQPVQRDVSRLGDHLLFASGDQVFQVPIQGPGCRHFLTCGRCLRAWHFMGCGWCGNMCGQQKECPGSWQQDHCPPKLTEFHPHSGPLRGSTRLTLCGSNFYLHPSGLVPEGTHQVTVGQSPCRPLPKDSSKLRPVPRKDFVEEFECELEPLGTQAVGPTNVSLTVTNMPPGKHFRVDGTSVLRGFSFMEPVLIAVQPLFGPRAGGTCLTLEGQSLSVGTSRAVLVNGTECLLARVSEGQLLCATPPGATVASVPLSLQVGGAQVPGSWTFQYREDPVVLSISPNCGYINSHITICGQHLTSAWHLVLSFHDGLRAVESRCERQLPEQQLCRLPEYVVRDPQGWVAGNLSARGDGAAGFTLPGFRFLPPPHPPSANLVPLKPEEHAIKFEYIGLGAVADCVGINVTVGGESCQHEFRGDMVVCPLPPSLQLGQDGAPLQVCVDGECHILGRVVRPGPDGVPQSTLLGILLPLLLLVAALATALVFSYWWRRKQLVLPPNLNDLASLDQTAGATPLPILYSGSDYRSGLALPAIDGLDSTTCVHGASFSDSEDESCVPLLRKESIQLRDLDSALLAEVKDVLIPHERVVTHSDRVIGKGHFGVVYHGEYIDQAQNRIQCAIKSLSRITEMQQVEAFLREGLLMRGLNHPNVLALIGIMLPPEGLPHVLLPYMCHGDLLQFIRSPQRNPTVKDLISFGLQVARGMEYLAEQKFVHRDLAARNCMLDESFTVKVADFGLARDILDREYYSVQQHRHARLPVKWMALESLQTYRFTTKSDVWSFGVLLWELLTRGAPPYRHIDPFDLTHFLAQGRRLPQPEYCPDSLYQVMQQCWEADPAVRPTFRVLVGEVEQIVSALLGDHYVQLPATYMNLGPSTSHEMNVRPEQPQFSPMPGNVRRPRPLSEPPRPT
In short: as §1

LTK = target: T4, LTK (Homo sapiens, UniProt P29376)
T4 construct: purchased ProQinase GmbH (Reaction Biology); host or cells: Sf9 insect cells or E. coli (not specified per kinase)
In short: as §1

PKCgamma = target: T5, PKCgamma (Homo sapiens, UniProt P05129)
T5 construct: either as full-length or enzymatically active fragments; purchased ProQinase GmbH (Reaction Biology)
In short: as §1

MAP3K7/MAP3K7IP1 = target: T6, MAP3K7/MAP3K7IP1 (Homo sapiens, UniProt O43318)
T6 construct: either as full-length or enzymatically active fragments; purchased ProQinase GmbH (Reaction Biology)
In short: as §1

PKA = target: T7, PKA (Homo sapiens, UniProt P17612)
T7 construct: either as full-length or enzymatically active fragments; purchased ProQinase GmbH (Reaction Biology); host or cells: Sf9 insect cells or E. coli
In short: as §1

MATK = target: T8, MATK (Homo sapiens, UniProt P42679)
T8 construct: purchased ProQinase GmbH (Reaction Biology)
In short: as §1

PKMzeta = target: T9, PKMzeta (Homo sapiens, UniProt Q05513)
T9 construct: either as full-length or enzymatically active fragments; purchased ProQinase GmbH (Reaction Biology); host or cells: Sf9 insect cells or E. coli
In short: as §1

LIMK1 = target: T10, LIMK1 (Homo sapiens, UniProt P53667)
T10 construct: either as full-length or enzymatically active fragments; purchased ProQinase GmbH (Reaction Biology)
In short: as §1

CDK5/p35NCK = target: T11, CDK5/p35NCK (Homo sapiens, UniProt Q00535)
T11 construct: either as full-length or enzymatically active fragments; purchased ProQinase GmbH (Reaction Biology)
In short: as §1

CDK3/CycE1 = target: T12, CDK3/CycE1 (Homo sapiens, UniProt Q00526)
T12 construct: either as full-length or enzymatically active fragments; purchased ProQinase GmbH (Reaction Biology)
In short: as §1

PKCepsilon = target: T13, PKCepsilon (Homo sapiens, UniProt Q02156)
T13 construct: either as full-length or enzymatically active fragments; purchased ProQinase GmbH (Reaction Biology); host or cells: Sf9 insect cells or E. coli
In short: as §1

PRKX = target: T14, PRKX (Homo sapiens, UniProt P51817)
T14 construct: either as full-length or enzymatically active fragments; purchased ProQinase GmbH (Reaction Biology)
T14 sequence (P51817 whole entry, the tested form may be a part): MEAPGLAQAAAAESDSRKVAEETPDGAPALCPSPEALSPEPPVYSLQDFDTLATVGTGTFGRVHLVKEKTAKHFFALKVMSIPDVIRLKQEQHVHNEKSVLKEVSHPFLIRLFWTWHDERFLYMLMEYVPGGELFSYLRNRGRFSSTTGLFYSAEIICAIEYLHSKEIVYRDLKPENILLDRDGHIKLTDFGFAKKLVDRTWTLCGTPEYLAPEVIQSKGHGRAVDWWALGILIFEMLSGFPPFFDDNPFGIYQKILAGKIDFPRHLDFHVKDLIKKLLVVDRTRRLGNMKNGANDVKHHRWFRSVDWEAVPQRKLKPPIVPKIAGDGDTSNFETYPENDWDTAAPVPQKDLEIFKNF
In short: as §1

PKCnu = target: T15, PKCnu (Homo sapiens, UniProt O94806)
T15 construct: either as full-length or enzymatically active fragments; purchased ProQinase GmbH (Reaction Biology)
T15 sequence (O94806 whole entry, the tested form may be a part): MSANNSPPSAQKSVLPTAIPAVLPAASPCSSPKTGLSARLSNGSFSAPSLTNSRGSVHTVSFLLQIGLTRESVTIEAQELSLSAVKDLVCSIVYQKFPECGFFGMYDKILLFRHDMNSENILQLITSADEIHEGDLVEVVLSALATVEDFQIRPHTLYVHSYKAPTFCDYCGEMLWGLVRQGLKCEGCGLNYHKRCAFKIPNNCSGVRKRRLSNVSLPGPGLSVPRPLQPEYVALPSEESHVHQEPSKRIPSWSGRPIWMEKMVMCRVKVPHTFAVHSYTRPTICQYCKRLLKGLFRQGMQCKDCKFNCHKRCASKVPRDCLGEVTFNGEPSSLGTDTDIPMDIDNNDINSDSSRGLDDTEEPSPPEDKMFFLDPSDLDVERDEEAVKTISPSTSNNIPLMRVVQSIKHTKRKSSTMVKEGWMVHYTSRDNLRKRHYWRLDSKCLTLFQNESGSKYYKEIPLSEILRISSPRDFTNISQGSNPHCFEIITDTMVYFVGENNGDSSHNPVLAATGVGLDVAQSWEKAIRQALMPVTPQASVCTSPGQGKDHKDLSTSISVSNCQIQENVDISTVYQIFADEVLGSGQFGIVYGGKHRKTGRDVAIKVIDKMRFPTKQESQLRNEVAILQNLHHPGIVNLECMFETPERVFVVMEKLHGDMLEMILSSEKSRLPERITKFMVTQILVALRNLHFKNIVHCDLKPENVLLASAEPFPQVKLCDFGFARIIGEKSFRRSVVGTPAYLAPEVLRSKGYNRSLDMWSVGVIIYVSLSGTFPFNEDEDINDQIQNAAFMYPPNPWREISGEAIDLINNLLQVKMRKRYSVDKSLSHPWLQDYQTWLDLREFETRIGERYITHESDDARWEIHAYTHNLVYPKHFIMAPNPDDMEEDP
In short: as §1

GRK4 = target: T16, GRK4 (Homo sapiens, UniProt P32298)
T16 construct: either as full-length or enzymatically active fragments; purchased ProQinase GmbH (Reaction Biology)
In short: as §1

DYRK1B = target: T17, DYRK1B (Homo sapiens, UniProt Q9Y463)
T17 construct: either as full-length or enzymatically active fragments; purchased ProQinase GmbH (Reaction Biology)
T17 sequence (Q9Y463 whole entry, the tested form may be a part): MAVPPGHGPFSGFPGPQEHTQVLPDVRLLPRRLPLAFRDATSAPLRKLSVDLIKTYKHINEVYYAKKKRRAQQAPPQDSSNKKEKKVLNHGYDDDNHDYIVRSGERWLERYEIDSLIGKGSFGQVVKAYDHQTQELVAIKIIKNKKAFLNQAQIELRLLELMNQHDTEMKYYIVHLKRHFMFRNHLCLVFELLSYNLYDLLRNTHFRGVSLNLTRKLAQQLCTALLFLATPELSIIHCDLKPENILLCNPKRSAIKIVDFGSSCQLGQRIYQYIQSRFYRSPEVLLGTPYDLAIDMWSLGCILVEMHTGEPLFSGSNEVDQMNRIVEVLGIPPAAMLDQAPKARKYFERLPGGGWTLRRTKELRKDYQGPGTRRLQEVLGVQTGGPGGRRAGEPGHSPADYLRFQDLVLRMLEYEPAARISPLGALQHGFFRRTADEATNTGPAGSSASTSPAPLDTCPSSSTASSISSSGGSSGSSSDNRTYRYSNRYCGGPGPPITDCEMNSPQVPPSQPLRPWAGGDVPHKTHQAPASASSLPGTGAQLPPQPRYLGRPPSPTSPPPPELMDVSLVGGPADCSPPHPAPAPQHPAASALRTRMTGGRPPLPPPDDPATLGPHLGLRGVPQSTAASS
In short: as §1

MARK1 = target: T18, MARK1 (Homo sapiens, UniProt Q9P0L2)
T18 construct: purchased ProQinase GmbH (Reaction Biology)
In short: as §1

RIPK5 = target: T19, RIPK5 (Homo sapiens, UniProt Q6XUX3)
T19 construct: purchased ProQinase GmbH (Reaction Biology)
In short: as §1

RAF1 YDYD = target: T20, RAF1 YDYD (Homo sapiens, UniProt P04049, Y340D/Y341D)
T20 construct: either as full-length or enzymatically active fragments; purchased ProQinase GmbH (Reaction Biology); host or cells: Sf9 insect cells or E. coli (not specified per kinase)
In short: as §1

AKT1 = target: T21, AKT1 (Homo sapiens, UniProt P31749)
T21 construct: either as full-length or enzymatically active fragments; purchased ProQinase GmbH (Reaction Biology)
In short: as §1

DAPK3 = target: T22, DAPK3 (Homo sapiens, UniProt O43293)
T22 construct: purchased ProQinase GmbH (Reaction Biology)
In short: as §1

CDC7/DBF4 = target: T23, CDC7/DBF4 (Homo sapiens, UniProt O00311)
T23 construct: purchased ProQinase GmbH (Reaction Biology)
T23 sequence (O00311 whole entry): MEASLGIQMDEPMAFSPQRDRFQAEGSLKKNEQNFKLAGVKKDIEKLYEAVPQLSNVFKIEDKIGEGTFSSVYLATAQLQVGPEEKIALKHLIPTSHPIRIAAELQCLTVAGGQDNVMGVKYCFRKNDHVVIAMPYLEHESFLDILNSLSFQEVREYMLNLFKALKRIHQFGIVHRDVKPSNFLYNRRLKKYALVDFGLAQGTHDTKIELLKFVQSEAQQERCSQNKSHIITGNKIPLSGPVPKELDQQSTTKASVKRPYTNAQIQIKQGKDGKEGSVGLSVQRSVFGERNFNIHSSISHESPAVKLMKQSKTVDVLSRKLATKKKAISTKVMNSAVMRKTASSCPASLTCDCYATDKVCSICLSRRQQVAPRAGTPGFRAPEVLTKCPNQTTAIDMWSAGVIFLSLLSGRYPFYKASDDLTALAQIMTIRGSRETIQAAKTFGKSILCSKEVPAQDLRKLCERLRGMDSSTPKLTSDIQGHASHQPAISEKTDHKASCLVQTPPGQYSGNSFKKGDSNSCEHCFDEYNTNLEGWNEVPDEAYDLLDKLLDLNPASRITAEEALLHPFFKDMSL
T23 sequence (Q9UBU7 whole entry partner): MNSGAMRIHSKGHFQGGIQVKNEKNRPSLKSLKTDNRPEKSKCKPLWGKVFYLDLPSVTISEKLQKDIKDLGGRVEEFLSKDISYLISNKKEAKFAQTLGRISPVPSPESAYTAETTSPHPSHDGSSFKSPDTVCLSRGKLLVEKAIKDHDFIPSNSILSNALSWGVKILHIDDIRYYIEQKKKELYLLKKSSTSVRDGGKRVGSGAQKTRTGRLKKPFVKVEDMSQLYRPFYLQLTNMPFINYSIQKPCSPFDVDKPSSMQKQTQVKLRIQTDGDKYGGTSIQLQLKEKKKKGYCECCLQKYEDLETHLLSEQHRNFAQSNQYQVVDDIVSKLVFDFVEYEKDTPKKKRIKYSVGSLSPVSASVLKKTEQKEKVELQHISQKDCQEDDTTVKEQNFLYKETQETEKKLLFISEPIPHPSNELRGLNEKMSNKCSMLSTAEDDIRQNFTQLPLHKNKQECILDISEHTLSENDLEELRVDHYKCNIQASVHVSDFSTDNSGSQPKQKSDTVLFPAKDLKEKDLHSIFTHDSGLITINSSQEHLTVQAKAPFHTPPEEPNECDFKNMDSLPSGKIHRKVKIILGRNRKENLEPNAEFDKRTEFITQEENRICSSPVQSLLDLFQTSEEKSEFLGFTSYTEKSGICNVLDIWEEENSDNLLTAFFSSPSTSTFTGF
In short: as §1

MARK2 = target: T24, MARK2 (Homo sapiens, UniProt Q7KZI7)
T24 construct: either as full-length or enzymatically active fragments; purchased ProQinase GmbH (Reaction Biology)
In short: as §1

EPHA2 = target: T25, EPHA2 (Homo sapiens, UniProt P29317)
T25 construct: either as full-length or enzymatically active fragments; purchased ProQinase GmbH (Reaction Biology)
In short: as §1

IKKbeta = target: T26, IKKbeta (Homo sapiens, UniProt O14920)
T26 construct: purchased ProQinase GmbH (Reaction Biology); host or cells: Sf9 insect cells or E. coli (not specified per kinase)
In short: as §1

MEK5 = target: T27, MEK5 (Homo sapiens, UniProt Q13163)
T27 construct: either as full-length or enzymatically active fragments; purchased ProQinase GmbH (Reaction Biology)
In short: as §1

RPS6KA3 = target: T28, RPS6KA3 (Homo sapiens, UniProt P51812)
T28 construct: purchased ProQinase GmbH (Reaction Biology); host or cells: Sf9 insect cells or E. coli (not specified per kinase)
In short: as §1

NEK7 = target: T29, NEK7 (Homo sapiens, UniProt Q8TDX7)
T29 construct: either as full-length or enzymatically active fragments; purchased ProQinase GmbH (Reaction Biology); host or cells: Sf9 insect cells or E. coli
In short: as §1

CAMK2G = target: T30, CAMK2G (Homo sapiens, UniProt Q13555)
T30 construct: either as full-length or enzymatically active fragments; purchased ProQinase GmbH (Reaction Biology)
T30 sequence (Q13555 whole entry, the tested form may be a part): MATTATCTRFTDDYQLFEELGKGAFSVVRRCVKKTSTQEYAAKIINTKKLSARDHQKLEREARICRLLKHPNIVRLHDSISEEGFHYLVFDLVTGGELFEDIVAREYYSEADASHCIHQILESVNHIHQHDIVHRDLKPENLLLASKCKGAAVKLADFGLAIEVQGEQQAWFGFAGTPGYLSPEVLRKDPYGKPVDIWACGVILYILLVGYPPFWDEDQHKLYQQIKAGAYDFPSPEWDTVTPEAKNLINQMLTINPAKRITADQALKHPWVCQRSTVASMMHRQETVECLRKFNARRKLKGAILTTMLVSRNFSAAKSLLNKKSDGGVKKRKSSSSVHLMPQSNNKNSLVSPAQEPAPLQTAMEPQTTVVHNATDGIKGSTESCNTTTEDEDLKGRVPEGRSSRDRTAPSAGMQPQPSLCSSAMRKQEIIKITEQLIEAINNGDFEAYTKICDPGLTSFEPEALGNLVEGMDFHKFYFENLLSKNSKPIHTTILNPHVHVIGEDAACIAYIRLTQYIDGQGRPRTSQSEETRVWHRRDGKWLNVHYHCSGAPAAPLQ
In short: as §1

## C=CC(=O)Nc1ccc(C(=O)N2CC[C@@H](Nc3ncc(C#N)cn3)C2)cc1 [Compound 4, (R)-N-(4-(3-((5-cyanopyrimidin-2-yl)amino)pyrrolidine-1-carbonyl)phenyl)acrylamide]
FLT3
  inhibition at 1 µM: -8%
SRPK2
  inhibition at 1 µM: 0%
RON
  inhibition at 1 µM: -1%
LTK
  inhibition at 1 µM: 1%
PKCgamma
  inhibition at 1 µM: -9%
MAP3K7/MAP3K7IP1
  inhibition at 1 µM: 2%
PKA
  inhibition at 1 µM: 13%
MATK
  inhibition at 1 µM: -3%
PKMzeta
  inhibition at 1 µM: 12%
LIMK1
  inhibition at 1 µM: 7%
CDK5/p35NCK
  inhibition at 1 µM: 23%
CDK3/CycE1
  inhibition at 1 µM: 25%
PKCepsilon
  inhibition at 1 µM: 15%
PRKX
  inhibition at 1 µM: -7%
PKCnu
  inhibition at 1 µM: 4%
GRK4
  inhibition at 1 µM: -13%
DYRK1B
  inhibition at 1 µM: 3%
MARK1
  inhibition at 1 µM: 0%
RIPK5
  inhibition at 1 µM: 0%
RAF1 YDYD
  inhibition at 1 µM: 9%
AKT1
  inhibition at 1 µM: 2%
DAPK3
  inhibition at 1 µM: 0%
CDC7/DBF4
  inhibition at 1 µM: -2%
MARK2
  inhibition at 1 µM: 2%
EPHA2
  inhibition at 1 µM: -5%
IKKbeta
  inhibition at 1 µM: 1%
MEK5
  inhibition at 1 µM: 23%
RPS6KA3
  inhibition at 1 µM: 1%
NEK7
  inhibition at 1 µM: -15%
CAMK2G
  inhibition at 1 µM: 5%

Source: patent US20230074545A1, “TREATMENT OF CANCER WITH CDK12/13 INHIBITORS” (Kinnate Biopharma Inc., priority 2019, published 2023)
